pIC50: −log10 of the molar value. Like-named read-outs stand apart in the source and are kept apart here.
What was measured:
[1] = tested on: Jurkat; assay: Tumor cell proliferation inhibition (CellTiter-Meiluncell Luminescent Cell Viability Assay), Jurkat; settings: Homo sapiens, 96 h, read-out: inhibitory activity (IC50, nM) against tumor cells proliferation, Jurkat
[2] = tested on: MGC803; assay: Tumor cell proliferation inhibition (CellTiter-Meiluncell Luminescent Cell Viability Assay), MGC803; settings: Homo sapiens, MGC-803, 96 h, read-out: inhibitory activity (IC50, nM) against tumor cells proliferation, MGC803
[3] = tested on: Vcap; assay: Tumor cell proliferation inhibition (CellTiter-Meiluncell Luminescent Cell Viability Assay), Vcap; settings: Homo sapiens, 96 h, read-out: inhibitory activity (IC50, nM) against tumor cells proliferation, Vcap
Experimental: (§1) The tumor cells used herein were cultured in a cell culture medium listed in table 2 at 37°C in an incubator with 5% CO2. Prior to experimentation, all cell lines used were correctly identified by STR profiling, and tested negative for mycoplasma contamination using a mycoplasma detection kit through routine screenings.
(§2) On the following day, the test compounds of the present disclosure were subjected to serial dilution. […] Subsequently, 0.5 µL of the test compound dilution was transferred into the 96-well plate containing the cells, with each well containing 100 µL of cell culture medium. […] Into the 96-well plate, the diluted test compounds and corresponding detection reagents were added, resulting in final test compound concentrations of 500 nM and 10 nM, respectively. The experimental procedure is described below using the diluted 2 µM test compound as an example.
(§3) After the cells were treated with the compounds of the present disclosure for a specified period (the treatment durations were shown in Table 3), the cell viability assay reagent was added to the culture medium according to the kit's instructions to determine cell viability. […] All controls were treated using the same procedure as the compounds of the present disclosure. The growth inhibition curves for the compounds of the present disclosure were plotted using Prism GraphPad software, and the IC50 values were calculated therefrom.

[4] = tested on: Human breast cancer cells (MDA-MB-231); assay: Tumor cell proliferation inhibition (CellTiter-Meiluncell Luminescent Cell Viability Assay), MDA-MB-231; settings: MDA-MB-231, 96 h, read-out: inhibitory activity (IC50, nM) against tumor cells proliferation, MDA-MB-231
Experimental: as §1, §2, §3

[5] = molecular target: T1, GSPT1 (Homo sapiens, UniProt P15170+Q96SW2); assay: Western-blot assay of substrate protein degradation in hPBMCs, GSPT1; type: cell-based; settings: 24 hours of compound treatment, compounds tested at 50 nM and 500 nM (concentration of the table not stated)
T1 construct: endogenous in cells; host or cells: hPBMCs (Milecell Biotechnologies)

[6] = tested on: Human acute T lymphocytic leukemia cells (Molt-4); assay: Tumor cell proliferation inhibition (CellTiter-Meiluncell Luminescent Cell Viability Assay), Molt-4; settings: MOLT-4, 96 h, read-out: inhibitory activity (IC50, nM) against tumor cells proliferation, Molt 4
[7] = molecular target: T2, WEE1 (Homo sapiens, UniProt P30291+Q96SW2); assay: Western-blot assay of substrate protein degradation in hPBMCs, WEE1; type: cell-based; settings: 24 hours of compound treatment, compounds tested at 50 nM and 500 nM (concentration of the table not stated)
T2 construct: endogenous in cells; host or cells: hPBMCs (Milecell Biotechnologies)

[8] = tested on: NCI-H1975; assay: Tumor cell proliferation inhibition (CellTiter-Meiluncell Luminescent Cell Viability Assay), NCI-H1975; settings: Homo sapiens, NCI-H1975, 96 h, read-out: inhibitory activity (IC50, nM) against tumor cells proliferation, H1975
[9] = tested on: SR; assay: Tumor cell proliferation inhibition (CellTiter-Meiluncell Luminescent Cell Viability Assay), SR; settings: Homo sapiens, 96 h, read-out: inhibitory activity (IC50, nM) against tumor cells proliferation, SR
[10] = molecular target: T3, CK1α (Homo sapiens, UniProt P48729+Q96SW2); assay: Western-blot assay of substrate protein degradation in hPBMCs, CK1α; type: cell-based; settings: 24 hours of compound treatment, compounds tested at 50 nM and 500 nM (concentration of the table not stated)
T3 construct: endogenous in cells; host or cells: hPBMCs (Milecell Biotechnologies)

[11] = tested on: MM.1R; assay: Tumor cell proliferation inhibition (CellTiter-Meiluncell Luminescent Cell Viability Assay), MM.1R; settings: Homo sapiens, 96 h, read-out: inhibitory activity (IC50, nM) against tumor cells proliferation, MM.1R
[12] = molecular target: T4, IKZF3 (Homo sapiens, UniProt Q96SW2+Q9UKT9); assay: Western-blot assay of substrate protein degradation in hPBMCs, IKZF3; type: cell-based; settings: 24 hours of compound treatment, compounds tested at 50 nM and 500 nM (concentration of the table not stated)
T4 construct: endogenous in cells; host or cells: hPBMCs (Milecell Biotechnologies)

[13] = tested on: CCRF-CEM; assay: Tumor cell proliferation inhibition (CellTiter-Meiluncell Luminescent Cell Viability Assay), CCRF-CEM; settings: Homo sapiens, 96 h, read-out: inhibitory activity (IC50, nM) against tumor cells proliferation, CCRF-CEM
[14] = molecular target: T5, IKZF1 (Homo sapiens, UniProt Q13422+Q96SW2); assay: Western-blot assay of substrate protein degradation in hPBMCs, IKZF1; type: cell-based; settings: 24 hours of compound treatment, compounds tested at 50 nM and 500 nM (concentration of the table not stated)
T5 construct: endogenous in cells; host or cells: hPBMCs (Milecell Biotechnologies)

[15] = molecular target: T6, IKZF2 (Homo sapiens, UniProt Q96SW2+Q9UKS7); assay: Western-blot assay of substrate protein degradation in hPBMCs, IKZF2; type: cell-based; settings: 24 hours of compound treatment, compounds tested at 50 nM and 500 nM (concentration of the table not stated)
T6 construct: endogenous in cells; host or cells: hPBMCs (Milecell Biotechnologies)

[16] = tested on: CAL-62; assay: Tumor cell proliferation inhibition (CellTiter-Meiluncell Luminescent Cell Viability Assay), CAL-62; settings: Homo sapiens, CAL-62, 96 h, read-out: inhibitory activity (IC50, nM) against tumor cells proliferation, CAL-62
[17] = tested on: SW620; assay: Tumor cell proliferation inhibition (CellTiter-Meiluncell Luminescent Cell Viability Assay), SW620; settings: Homo sapiens, SW-620, 96 h, read-out: inhibitory activity (IC50, nM) against tumor cells proliferation, SW620
[18] = molecular target: T7, human Cereblon WT GST-tagged protein (Homo sapiens, UniProt Q96SW2); assay: CRBN-binding affinity by HTRF (CEREBLON BINDING kit)
T7 construct: purchased CISBIO 64BDCRBNPEH

[19] = tested on: TMD8; assay: Tumor cell proliferation inhibition (CellTiter-Meiluncell Luminescent Cell Viability Assay), TMD8; settings: Homo sapiens, TMD8, 96 h, read-out: inhibitory activity (IC50, nM) against tumor cells proliferation, TMD8
[20] = HTRF inhibitory activity, CEREBLON BINDING kit; read-out: HTRF IC50

T1 sequence (P15170 whole entry): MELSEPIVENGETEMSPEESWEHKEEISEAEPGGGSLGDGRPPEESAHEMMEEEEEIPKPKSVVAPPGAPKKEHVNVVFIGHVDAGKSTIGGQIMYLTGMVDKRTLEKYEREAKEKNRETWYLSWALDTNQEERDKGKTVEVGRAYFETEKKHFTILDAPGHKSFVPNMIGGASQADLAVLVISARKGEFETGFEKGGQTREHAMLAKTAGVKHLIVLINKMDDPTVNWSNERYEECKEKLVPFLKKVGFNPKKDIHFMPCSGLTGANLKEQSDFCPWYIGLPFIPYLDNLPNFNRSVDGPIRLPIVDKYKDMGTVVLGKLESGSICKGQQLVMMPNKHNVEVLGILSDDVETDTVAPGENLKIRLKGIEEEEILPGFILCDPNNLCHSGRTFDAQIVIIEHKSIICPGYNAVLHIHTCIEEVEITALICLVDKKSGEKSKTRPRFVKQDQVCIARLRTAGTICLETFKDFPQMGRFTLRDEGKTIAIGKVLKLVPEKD
T1 sequence (Q96SW2 whole entry): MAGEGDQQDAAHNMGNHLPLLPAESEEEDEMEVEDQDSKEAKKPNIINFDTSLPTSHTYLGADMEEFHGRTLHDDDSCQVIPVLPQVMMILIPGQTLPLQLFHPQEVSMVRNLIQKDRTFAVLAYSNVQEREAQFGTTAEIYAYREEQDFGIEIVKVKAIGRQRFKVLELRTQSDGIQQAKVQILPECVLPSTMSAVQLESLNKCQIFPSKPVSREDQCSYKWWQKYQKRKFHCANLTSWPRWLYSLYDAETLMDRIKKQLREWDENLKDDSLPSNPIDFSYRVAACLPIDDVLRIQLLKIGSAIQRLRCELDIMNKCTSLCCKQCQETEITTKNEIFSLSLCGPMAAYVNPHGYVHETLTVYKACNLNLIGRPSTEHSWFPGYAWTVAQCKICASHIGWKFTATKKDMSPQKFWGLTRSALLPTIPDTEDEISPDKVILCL
T1 sequence (Q16531 whole entry partner): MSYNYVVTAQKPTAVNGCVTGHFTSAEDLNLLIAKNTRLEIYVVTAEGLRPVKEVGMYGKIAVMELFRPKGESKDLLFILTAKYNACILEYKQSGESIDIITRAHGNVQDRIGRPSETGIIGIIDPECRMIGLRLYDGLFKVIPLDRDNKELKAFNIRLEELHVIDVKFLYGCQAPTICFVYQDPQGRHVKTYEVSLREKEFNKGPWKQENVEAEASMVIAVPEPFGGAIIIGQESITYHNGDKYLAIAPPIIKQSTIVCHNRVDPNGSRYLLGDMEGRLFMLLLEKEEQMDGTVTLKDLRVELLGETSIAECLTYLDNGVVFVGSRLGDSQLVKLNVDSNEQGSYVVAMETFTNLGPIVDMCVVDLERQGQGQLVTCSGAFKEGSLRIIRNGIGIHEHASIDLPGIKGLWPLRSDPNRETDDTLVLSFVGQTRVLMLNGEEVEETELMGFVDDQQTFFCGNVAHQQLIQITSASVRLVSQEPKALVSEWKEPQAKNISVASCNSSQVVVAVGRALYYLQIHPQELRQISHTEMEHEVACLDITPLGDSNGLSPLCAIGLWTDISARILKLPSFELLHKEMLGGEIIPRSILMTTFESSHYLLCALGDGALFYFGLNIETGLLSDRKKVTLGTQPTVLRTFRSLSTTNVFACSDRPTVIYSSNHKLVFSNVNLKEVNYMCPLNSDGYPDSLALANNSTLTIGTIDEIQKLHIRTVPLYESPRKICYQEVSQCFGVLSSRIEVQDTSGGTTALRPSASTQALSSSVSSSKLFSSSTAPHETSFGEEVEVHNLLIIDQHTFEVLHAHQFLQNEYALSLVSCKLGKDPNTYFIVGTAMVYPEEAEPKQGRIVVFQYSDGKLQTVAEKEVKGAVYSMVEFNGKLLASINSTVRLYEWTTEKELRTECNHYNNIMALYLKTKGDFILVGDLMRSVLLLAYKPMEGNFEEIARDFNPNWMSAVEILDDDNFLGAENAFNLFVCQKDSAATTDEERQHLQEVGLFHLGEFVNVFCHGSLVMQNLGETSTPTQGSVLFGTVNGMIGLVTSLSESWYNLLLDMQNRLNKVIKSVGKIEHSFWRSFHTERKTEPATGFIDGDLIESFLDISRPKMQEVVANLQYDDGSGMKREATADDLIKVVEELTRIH
T7 sequence (Q96SW2 whole entry): as the sequence (Q96SW2 whole entry) above
T2 sequence (P30291 whole entry): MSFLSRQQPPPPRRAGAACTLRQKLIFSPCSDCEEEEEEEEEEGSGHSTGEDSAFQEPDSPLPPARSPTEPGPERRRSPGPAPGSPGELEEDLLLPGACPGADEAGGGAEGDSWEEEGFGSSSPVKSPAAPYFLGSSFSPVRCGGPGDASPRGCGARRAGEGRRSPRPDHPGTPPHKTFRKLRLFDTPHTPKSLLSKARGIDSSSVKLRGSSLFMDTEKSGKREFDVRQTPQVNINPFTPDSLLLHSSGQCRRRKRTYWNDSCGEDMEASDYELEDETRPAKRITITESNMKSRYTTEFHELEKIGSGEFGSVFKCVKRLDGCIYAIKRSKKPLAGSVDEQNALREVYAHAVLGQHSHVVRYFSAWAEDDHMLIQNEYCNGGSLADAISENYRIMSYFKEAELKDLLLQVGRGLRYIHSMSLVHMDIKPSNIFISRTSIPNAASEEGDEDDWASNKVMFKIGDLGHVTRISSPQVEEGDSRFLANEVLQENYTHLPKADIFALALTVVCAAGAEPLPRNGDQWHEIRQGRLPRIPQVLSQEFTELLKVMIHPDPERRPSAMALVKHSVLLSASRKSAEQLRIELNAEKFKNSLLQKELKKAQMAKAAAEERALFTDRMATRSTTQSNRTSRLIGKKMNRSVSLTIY
T2 sequence (Q96SW2 whole entry): as the sequence (Q96SW2 whole entry) above
T2 sequence (Q16531 whole entry partner): as the sequence (Q16531 whole entry partner) above
T5 sequence (Q13422 whole entry): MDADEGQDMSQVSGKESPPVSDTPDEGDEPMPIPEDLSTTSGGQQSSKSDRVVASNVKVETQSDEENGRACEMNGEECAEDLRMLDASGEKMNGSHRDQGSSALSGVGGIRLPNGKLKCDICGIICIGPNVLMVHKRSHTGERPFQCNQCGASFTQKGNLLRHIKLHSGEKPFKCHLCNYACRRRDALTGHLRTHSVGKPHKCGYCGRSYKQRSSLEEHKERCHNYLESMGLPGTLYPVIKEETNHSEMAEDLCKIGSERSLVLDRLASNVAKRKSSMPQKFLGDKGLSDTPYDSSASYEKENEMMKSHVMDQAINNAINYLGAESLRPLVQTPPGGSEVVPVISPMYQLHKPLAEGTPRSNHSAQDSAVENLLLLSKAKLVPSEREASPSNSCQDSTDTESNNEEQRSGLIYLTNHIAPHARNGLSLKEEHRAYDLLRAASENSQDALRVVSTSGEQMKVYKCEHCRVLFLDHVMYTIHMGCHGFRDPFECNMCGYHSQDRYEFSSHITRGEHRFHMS
T5 sequence (Q96SW2 whole entry): as the sequence (Q96SW2 whole entry) above
T5 sequence (Q16531 whole entry partner): as the sequence (Q16531 whole entry partner) above
T4 sequence (Q9UKT9 whole entry): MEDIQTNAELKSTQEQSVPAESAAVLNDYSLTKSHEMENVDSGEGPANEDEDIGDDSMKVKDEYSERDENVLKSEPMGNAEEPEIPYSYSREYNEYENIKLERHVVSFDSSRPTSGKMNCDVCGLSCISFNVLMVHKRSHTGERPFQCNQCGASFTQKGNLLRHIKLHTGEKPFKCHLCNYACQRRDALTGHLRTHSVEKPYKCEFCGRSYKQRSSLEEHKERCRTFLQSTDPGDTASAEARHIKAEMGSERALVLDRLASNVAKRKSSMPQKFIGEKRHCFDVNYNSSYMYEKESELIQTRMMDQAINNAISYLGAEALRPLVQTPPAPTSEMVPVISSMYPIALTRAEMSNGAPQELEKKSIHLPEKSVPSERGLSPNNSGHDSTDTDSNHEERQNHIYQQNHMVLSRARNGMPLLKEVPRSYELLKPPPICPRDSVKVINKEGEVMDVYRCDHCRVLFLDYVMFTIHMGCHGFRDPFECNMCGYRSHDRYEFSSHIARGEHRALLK
T4 sequence (Q96SW2 whole entry): as the sequence (Q96SW2 whole entry) above
T4 sequence (Q16531 whole entry partner): as the sequence (Q16531 whole entry partner) above
T3 sequence (P48729 whole entry): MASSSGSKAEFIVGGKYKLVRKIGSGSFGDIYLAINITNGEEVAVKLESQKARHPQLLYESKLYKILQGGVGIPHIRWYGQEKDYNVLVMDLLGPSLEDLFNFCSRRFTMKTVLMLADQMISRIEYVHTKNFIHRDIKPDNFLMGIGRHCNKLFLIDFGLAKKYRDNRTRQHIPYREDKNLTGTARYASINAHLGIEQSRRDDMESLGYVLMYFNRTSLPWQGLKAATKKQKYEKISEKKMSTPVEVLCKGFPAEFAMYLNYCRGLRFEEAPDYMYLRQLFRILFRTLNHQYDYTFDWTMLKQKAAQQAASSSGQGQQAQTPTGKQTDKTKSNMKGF
T3 sequence (Q96SW2 whole entry): as the sequence (Q96SW2 whole entry) above
T3 sequence (Q16531 whole entry partner): as the sequence (Q16531 whole entry partner) above

Row | Structure (SMILES) | IC50 [1] [nM] | IC50 [2] [nM] | IC50 [3] [nM] | IC50 [4] [nM] | GSPT1 substrate protein remaining % [5] | IC50 [6] [nM] | Weel substrate protein remaining % [7] | IC50 [8] [nM] | IC50 [9] [nM] | CK1a substrate protein remaining % [10] | IC50 [11] [nM] | IKZF3 substrate protein remaining % [12] | IC50 [13] [nM] | IKZF 1 substrate protein remaining % [14] | IKZF2 substrate protein remaining % [15] | IC50 [16] [nM] | IC50 [17] [nM] | pIC50 ([18]; read-out: HTRF IC50; HTRF inhibitory activity, CEREBLON BINDING kit) | IC50 [19] [nM] | pIC50 [18, 20]
1 | O=C1CCC(N2Cc3cc(CN4CCN(c5ccc(Br)cc5)CC4)ccc3C2=O)C(=O)N1 (stereo not drawn) | 1 to 5 | 100 to 500 | 10 to 50 | 100 to 500 | A (0% ≤ substrate protein remaining % ≤ 80%) | 5 to 10 | B (80%< substrate protein remaining %≤ 100%) | 100 to 500 | 100 to 500 | A (0% ≤ substrate protein remaining % ≤ 80%) | 5 to 10 | B (80%< substrate protein remaining %≤ 100%) | 5 to 10 | B (80%< substrate protein remaining %≤ 100%) | B (80%< substrate protein remaining %≤ 100%) | 10 to 50 | 100 to 500 | 6.00 to 6.30 |  | 
2 | Cc1ccc(Sc2ccccc2N2CCN(Cc3ccc4c(c3)CN(C3CCC(=O)NC3=O)C4=O)CC2)c(C)c1 (stereo not drawn) [GT-04203, 3-(5-((4-(2-((2,4-dimethylphenyl)thio)phenyl)piperazin-1-yl)methyl)-1-oxoisoindolin-2-yl)piperidine-2,6-dione] | 5 to 10 | 100 to 500 | 5 to 10 |  | A (0% ≤ substrate protein remaining % ≤ 80%) |  | A (0% ≤ substrate protein remaining % ≤ 80%) |  |  | A (0% ≤ substrate protein remaining % ≤ 80%) |  | A (0% ≤ substrate protein remaining % ≤ 80%) | 5 to 10 | A (0% ≤ substrate protein remaining % ≤ 80%) | A (0% ≤ substrate protein remaining % ≤ 80%) | 5 to 10 | 10 to 50 |  | 10 to 50 | 6.00 to 6.30
3 | O=C1CCC(N2Cc3cc(CN4CCC(c5noc6cc(F)ccc56)CC4)ccc3C2=O)C(=O)N1 (stereo not drawn) [GT-04254, 3-(5-((4-(6-fluorobenzo[d]isoxazol-3-yl)piperidin-1-yl)methyl)-1-oxoisoindolin-2-yl)piperidine-2,6-dione] | 10 to 50 | 100 to 500 | 10 to 50 |  | A (0% ≤ substrate protein remaining % ≤ 80%) |  | A (0% ≤ substrate protein remaining % ≤ 80%) |  |  | A (0% ≤ substrate protein remaining % ≤ 80%) |  | A (0% ≤ substrate protein remaining % ≤ 80%) | 5 to 10 | A (0% ≤ substrate protein remaining % ≤ 80%) | A (0% ≤ substrate protein remaining % ≤ 80%) | 10 to 50 | 10 to 50 |  | 100 to 500 | 6.00 to 6.30
4 | O=C1CCC(N2Cc3cc(CN4CCC(c5ccccc5Cl)CC4)ccc3C2=O)C(=O)N1 (stereo not drawn) [GT-04468, 3-(5-((4-(2-chlorophenyl)piperidin-1-yl)methyl)-1-oxoisoindolin-2-yl)piperidine-2,6-dione] | 5 to 10 | 500 to 1000 | 50 to 100 |  | A (0% ≤ substrate protein remaining % ≤ 80%) | 5 to 10 | A (0% ≤ substrate protein remaining % ≤ 80%) | 100 to 500 | 500 to 1000 | A (0% ≤ substrate protein remaining % ≤ 80%) | 10 to 50 | A (0% ≤ substrate protein remaining % ≤ 80%) | 5 to 10 | A (0% ≤ substrate protein remaining % ≤ 80%) | A (0% ≤ substrate protein remaining % ≤ 80%) | 10 to 50 | 100 to 500 |  |  | 6.00 to 6.30
5 | O=C1CCC(N2Cc3cc(CN4CCC(c5ccccc5F)CC4)ccc3C2=O)C(=O)N1 (stereo not drawn) [GT-04470, 3-(5-((4-(2-fluorophenyl)piperidin-1-yl)methyl)-1-oxoisoindolin-2-yl)piperidine-2,6-dione] | 5 to 10 | 100 to 500 | 50 to 100 |  | A (0% ≤ substrate protein remaining % ≤ 80%) | 10 to 50 | A (0% ≤ substrate protein remaining % ≤ 80%) | 500 to 1000 | 500 to 1000 | A (0% ≤ substrate protein remaining % ≤ 80%) | 10 to 50 | A (0% ≤ substrate protein remaining % ≤ 80%) | 10 to 50 | A (0% ≤ substrate protein remaining % ≤ 80%) | A (0% ≤ substrate protein remaining % ≤ 80%) | 10 to 50 | 100 to 500 |  |  | 6.00 to 6.30
6 | O=C1CCC(N2Cc3cc(CN4CCC(c5cccc(C(F)(F)F)c5)CC4)ccc3C2=O)C(=O)N1 (stereo not drawn) [GT-04472, 3-(1-oxo-5-((4-(3-(trifluoromethyl)phenyl)piperidin-1-yl)methyl)isoindolin-2-yl)piperidine-2,6-dione] | 1 to 5 | 50 to 100 | 10 to 50 |  | A (0% ≤ substrate protein remaining % ≤ 80%) | 1 to 5 | A (0% ≤ substrate protein remaining % ≤ 80%) | 10 to 50 | 50 to 100 | B (80%< substrate protein remaining %≤ 100%) | 1 to 5 | A (0% ≤ substrate protein remaining % ≤ 80%) | 1 to 5 | A (0% ≤ substrate protein remaining % ≤ 80%) | A (0% ≤ substrate protein remaining % ≤ 80%) | 5 to 10 | 10 to 50 |  |  | 6.00 to 6.30
7 | Cc1ccsc1C1=CCN(Cc2ccc3c(c2)CN(C2CCC(=O)NC2=O)C3=O)CC1 (stereo not drawn) [GT-04495, 3-(5-((4-(3-methylthiophen-2-yl)-3,6-dihydropyridin-1(2H)-yl)methyl)-1-oxoisoindolin-2-yl)piperidine-2,6-dione] | < 1 | 10 to 50 | 1 to 5 | 1 to 5 | A (0% ≤ substrate protein remaining % ≤ 80%) | < 1 | B (80%< substrate protein remaining %≤ 100%) | 1 to 5 | 1 to 5 | A (0% ≤ substrate protein remaining % ≤ 80%) |  | B (80%< substrate protein remaining %≤ 100%) | < 1 | B (80%< substrate protein remaining %≤ 100%) | A (0% ≤ substrate protein remaining % ≤ 80%) | < 1 | 1 to 5 |  |  | > 6.30

Reference: patent EP4745137A1 (Gluetacs Therapeutics (Shanghai) Co., Ltd., priority 2023, dated 2025)
